Measurements from publication PMC7593776 (RSC Medicinal Chemistry, 2020).

Target: ERK2 (Homo sapiens, UniProt P28482)
Assay: Z′-LYTE kinase inhibition assay
Assay type: biochemical
Settings: ATP concentration 100 μM

Sequence of ERK2 (P28482 whole entry): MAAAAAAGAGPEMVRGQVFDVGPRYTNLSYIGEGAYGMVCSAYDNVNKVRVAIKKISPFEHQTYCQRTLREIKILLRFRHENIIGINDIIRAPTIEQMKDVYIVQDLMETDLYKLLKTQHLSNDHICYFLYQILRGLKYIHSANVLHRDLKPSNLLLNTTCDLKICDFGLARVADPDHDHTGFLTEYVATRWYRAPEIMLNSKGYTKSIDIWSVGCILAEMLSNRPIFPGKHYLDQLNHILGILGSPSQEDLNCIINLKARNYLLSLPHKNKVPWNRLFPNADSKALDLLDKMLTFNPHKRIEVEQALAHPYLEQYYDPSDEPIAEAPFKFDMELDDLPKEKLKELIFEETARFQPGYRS

inhibition (in words): not inhibited
Compound: Nc1cccc2cc[nH]c(=O)c12 [MR1]
